According to ChEMBL document CHEMBL4334431, “Gramicidin S-inspired antimicrobial cyclodextrin to disrupt gram-negative and gram-positive bacterial membranes” (Medchemcomm, 2019):
≈ marks a conversion by molar mass, not a printed value. Calls of active or inactive are those of the source. The calls are words filed in the database; no cut-off is given here.

Tests used:
Escherichia coli [1] = assay: Antibacterial activity against Escherichia coli K12 W3110 assessed as bacterial growth inhibition after 20 hrs by liquid microdilution method; assay type: functional
Salmonella typhimurium = assay: Antibacterial activity against Salmonella typhimurium LT2 assessed as bacterial growth inhibition after 20 hrs by liquid microdilution method; assay type: functional, Salmonella enterica subsp. enterica serovar Typhimurium; settings: Salmonella enterica, LT2, 20 h
Staphylococcus aureus [2] = assay: Induction of membrane permeabilization in Staphylococcus aureus FDA 209P assessed as decrease in cell viability; assay type: functional, organism-based
Staphylococcus aureus [3] = assay: Antibacterial activity against Staphylococcus aureus FDA 209P assessed as bacterial growth inhibition after 20 hrs by liquid microdilution method; assay type: functional
[4] = Haemolytic activity in rabbit RBCs at 50 uM relative to control; assay type: ADME, cell-based, Oryctolagus cuniculus, Erythrocyte; settings: rabbit red blood cells (erythrocytes), read-out: Activity
Escherichia coli [5] = assay: Induction of membrane permeabilization in Escherichia coli K12 W3110 assessed as increase in potassium efflux; assay type: functional, organism-based
Escherichia coli [6] = assay: Induction of membrane permeabilization in Escherichia coli K12 W3110 assessed as decrease in cell viability; assay type: functional, organism-based
Pseudomonas aeruginosa [7] = assay: Antibacterial activity against Pseudomonas aeruginosa PAO1 assessed as bacterial growth inhibition after 20 hrs by liquid microdilution method; assay type: functional
Bacillus subtilis = assay: Antibacterial activity against Bacillus subtilis 168 assessed as bacterial growth inhibition after 20 hrs by liquid microdilution method; assay type: functional; settings: Bacillus subtilis, 168, 20 h
[8] = Partition coefficient, log P of compound; assay type: physicochemical; settings: octanol/water
Staphylococcus aureus [9] = assay: Induction of membrane permeabilization in Staphylococcus aureus FDA 209P assessed as increase in potassium efflux; assay type: functional, organism-based
Escherichia coli [10] = assay: Antimicrobial activity against ESBL-producing Escherichia coli assessed as bacterial growth inhibition after 20 hrs by liquid microdilution method; assay type: functional
Pseudomonas aeruginosa [11] = assay: Antibacterial activity against carbapenem-reistant Pseudomonas aeruginosa PAO1 assessed as bacterial growth inhibition after 20 hrs by liquid microdilution method; assay type: functional; settings: PAO1, 20 h
Escherichia coli [12] = assay: Antimicrobial activity against carbapenem-resistant Escherichia coli assessed as bacterial growth inhibition after 20 hrs by liquid microdilution method; assay type: functional
Staphylococcus aureus [13] = assay: Antibacterial activity against Staphylococcus aureus FDA 209P at sub-MIC by resistant development assay; assay type: functional
Escherichia coli [14] = assay: Antimicrobial activity against […] at sub-MIC treated by resistant development assay; assay type: functional; settings: K-12 substr. W3110

Compound | MIC (Escherichia coli [1]; K-12 substr. W3110, 20 h) [µM] | MIC (Salmonella typhimurium) [µM] | MIC (Staphylococcus aureus [3]) [µM] | MIC (Pseudomonas aeruginosa [7]; PAO1, 20 h) [µM] | MIC (Bacillus subtilis) [µM] | logP [8] | MIC (Escherichia coli [1]; K-12 substr. W3110) [µM] | MIC (Pseudomonas aeruginosa [7]) [µM] | Activity (Staphylococcus aureus [2]) | hemolysis at 50 µM [4] [%] | Activity (Escherichia coli [5]) | Activity (Escherichia coli [6]) | Activity (Staphylococcus aureus [9]) | MIC (Escherichia coli [10]) [µM] | MIC (Pseudomonas aeruginosa [11]) [µM] | MIC (Escherichia coli [12]) [µM] | MIC (Staphylococcus aureus [13]) [µM] | MIC (Escherichia coli [14]) [µM]
CCC(=O)O[C@@H]1[C@@H](OC(=O)CC)[C@H]2O[C@H]3[C@H](OC(=O)CC)[C@@H](OC(=O)CC)[C@@H](O[C@H]4[C@H](OC(=O)CC)[C@@H](OC(=O)CC)[C@@H](O[C@H]5[C@@H](OC(=O)CC)[C@@H](OC(=O)CC)[C@H](O[C@H]6[C@H](OC(=O)CC)[C@@H](OC(=O)CC)[C@@H](O[C@H]7[C@H](OC(=O)CC)[C@@H](OC(=O)CC)[C@@H](O[C@H]8[C@H](OC(=O)CC)[C@@H](OC(=O)CC)[C@@H](O[C@@H]1[C@@H](Cn1cc(CN)nn1)O2)O[C@@H]8Cn1cc(CN)nn1)O[C@@H]7Cn1cc(CN)nn1)O[C@@H]6Cn1cc(CN)nn1)O[C@@H]5Cn1cc(CN)nn1)O[C@@H]4Cn1cc(CN)nn1)O[C@@H]3Cn1cc(CN)nn1 | 2 (≈ 4.96 µg/mL) | 5 (≈ 12.4 µg/mL) | 5 (≈ 12.4 µg/mL) | 2 (≈ 4.96 µg/mL) | 2 (≈ 4.96 µg/mL) | -0.89 | – | – | – | 20 | – | – | – | 6 (≈ 14.9 µg/mL) | 6 (≈ 14.9 µg/mL) | 11 (≈ 27.3 µg/mL) | – | –
CC(C)CC(=O)O[C@@H]1[C@@H](OC(=O)CC(C)C)[C@H]2O[C@H]3[C@H](OC(=O)CC(C)C)[C@@H](OC(=O)CC(C)C)[C@@H](O[C@H]4[C@H](OC(=O)CC(C)C)[C@@H](OC(=O)CC(C)C)[C@@H](O[C@H]5[C@H](OC(=O)CC(C)C)[C@@H](OC(=O)CC(C)C)[C@@H](O[C@H]6[C@H](OC(=O)CC(C)C)[C@@H](OC(=O)CC(C)C)[C@@H](O[C@H]7[C@H](OC(=O)CC(C)C)[C@@H](OC(=O)CC(C)C)[C@@H](O[C@H]8[C@H](OC(=O)CC(C)C)[C@@H](OC(=O)CC(C)C)[C@@H](O[C@H]9[C@H](OC(=O)CC(C)C)[C@@H](OC(=O)CC(C)C)[C@@H](O[C@@H]1[C@@H](Cn1cc(CN)nn1)O2)O[C@@H]9Cn1cc(CN)nn1)O[C@@H]8Cn1cc(CN)nn1)O[C@@H]7Cn1cc(CN)nn1)O[C@@H]6Cn1cc(CN)nn1)O[C@@H]5Cn1cc(CN)nn1)O[C@@H]4Cn1cc(CN)nn1)O[C@@H]3Cn1cc(CN)nn1 | > 31 | > 43 | > 31 | > 43 | > 31 | 0.6 | – | – | – | 87 | – | – | – | – | – | – | – | –
CCn1cc(C(=O)O)c(=O)c2cc(F)c(N3CCNCC3)cc21 [NORFLOXACIN] | – | – | – | – | – | – | – | – | – | – | – | – | – | – | – | – | 0.8 to 3 (≈ 0.255 to 0.958 µg/mL) | 0.2 to 6 (≈ 0.0639 to 1.92 µg/mL)

More lines, main results first:

MIC (Escherichia coli [1]; K-12 substr. W3110, 20 h) [µM] | MIC (Salmonella typhimurium) [µM] | MIC (Staphylococcus aureus [3]) [µM] | MIC (Pseudomonas aeruginosa [7]; PAO1, 20 h) [µM] | MIC (Bacillus subtilis) [µM] | logP [8] | MIC (Escherichia coli [1]; K-12 substr. W3110) [µM] | MIC (Pseudomonas aeruginosa [7]) [µM] | Compound | Activity (Staphylococcus aureus [2]) | hemolysis at 50 µM [4] [%] | Activity (Escherichia coli [5]) | Activity (Escherichia coli [6]) | Activity (Staphylococcus aureus [9]) | MIC (Escherichia coli [10]) [µM] | MIC (Pseudomonas aeruginosa [11]) [µM] | MIC (Escherichia coli [12]) [µM] | MIC (Staphylococcus aureus [13]) [µM] | MIC (Escherichia coli [14]) [µM]
> 32 | > 32 | > 32 | > 32 | > 32 | -0.06 | – | – | CCCC(=O)O[C@@H]1[C@@H](OC(=O)CCC)[C@H]2O[C@H]3[C@H](OC(=O)CCC)[C@@H](OC(=O)CCC)[C@@H](O[C@H]4[C@H](OC(=O)CCC)[C@@H](OC(=O)CCC)[C@@H](O[C@H]5[C@H](OC(=O)CCC)[C@@H](OC(=O)CCC)[C@@H](O[C@H]6[C@H](OC(=O)CCC)[C@@H](OC(=O)CCC)[C@@H](O[C@H]7[C@H](OC(=O)CCC)[C@@H](OC(=O)CCC)[C@@H](O[C@H]8[C@H](OC(=O)CCC)[C@@H](OC(=O)CCC)[C@@H](O[C@H]9[C@H](OC(=O)CCC)[C@@H](OC(=O)CCC)[C@@H](O[C@@H]1[C@@H](Cn1cc(CN)nn1)O2)O[C@@H]9Cn1cc(CN)nn1)O[C@@H]8Cn1cc(CN)nn1)O[C@@H]7Cn1cc(CN)nn1)O[C@@H]6Cn1cc(CN)nn1)O[C@@H]5Cn1cc(CN)nn1)O[C@@H]4Cn1cc(CN)nn1)O[C@@H]3Cn1cc(CN)nn1 | Active | 102 | Active | Active | Active | – | – | – | – | –
> 36 | > 36 | > 36 | > 36 | > 36 | -2.2 | – | – | CC(=O)O[C@@H]1[C@@H](OC(C)=O)[C@H]2O[C@H]3[C@H](OC(C)=O)[C@@H](OC(C)=O)[C@@H](O[C@H]4[C@H](OC(C)=O)[C@@H](OC(C)=O)[C@@H](O[C@H]5[C@H](OC(C)=O)[C@@H](OC(C)=O)[C@@H](O[C@H]6[C@H](OC(C)=O)[C@@H](OC(C)=O)[C@@H](O[C@H]7[C@H](OC(C)=O)[C@@H](OC(C)=O)[C@@H](O[C@H]8[C@H](OC(C)=O)[C@@H](OC(C)=O)[C@@H](O[C@H]9[C@H](OC(C)=O)[C@@H](OC(C)=O)[C@@H](O[C@@H]1[C@@H](Cn1cc(CN)nn1)O2)O[C@@H]9Cn1cc(CN)nn1)O[C@@H]8Cn1cc(CN)nn1)O[C@@H]7Cn1cc(CN)nn1)O[C@@H]6Cn1cc(CN)nn1)O[C@@H]5Cn1cc(CN)nn1)O[C@@H]4Cn1cc(CN)nn1)O[C@@H]3Cn1cc(CN)nn1 | Active | 1 | Active | Active | Active | – | – | – | – | –
– | – | – | – | – | – | 0.7 | 2 | COLISTIN | – | – | – | – | – | – | – | – | – | –
